Measured values as given in publication PMC7615677 (Science translational medicine, 2023).

Assays:
Caco-2 cell monolayers = assay: Caco-2 permeability; type: in vitro ADME
Method: (§1) The ionization constant (pKa), octanol-pH 7.4 buffer partition coefficient (Log D7.4), solubility in biorelevant buffers (FaSSIF-V2, FeSSIF-V2, FaSSGF and pH 7.4 phosphate buffered saline (PBS)) and Caco-2 permeability were determined according to previously published methods ([10]).

Caco-2 permeability = type: in vitro ADME; conditions: human
Method: as §1

[1] = test system: L5178Y mouse lymphoma cells; assay: In vitro mutation assay at the TK locus; type: cell-based; conditions: absence or presence of rat liver S9
Method: Two independent mutation tests were carried out: one in which cells were treated for 3 h in the presence of rat liver S9 mix and with […] as a positive control, and a second treated for 24 h in the absence of S9 mix and with […] as a positive control. In both cases, DMSO was used as the negative control. In accordance with current guidelines ICH S2(R1), 2011 ([41]) mutant frequency was counted at concentrations where solubility was not a limiting factor and cytotoxicity was not observed.

[2] = pKa and Log D7.4 determination; type: physicochemical
Method: as §1

[3] = test system: T. cruzi (Tulahuen strain); assay: In vitro activity against other kinetoplastid parasites; type: cell-based; conditions: Trypanosoma cruzi
GR = molecular target: T1, GR (Homo sapiens, UniProt P04150); assay: In vitro pharmacology panel (Eurofins); type: binding; conditions: read-out: activity (% of DMSO control)
T1 construct: purchased Eurofins (Cerep/DiscoverX SafetyScreen44 in vitro pharmacology panel)
Text: (§2) Listed values represent the percent change relative to the DMSO control activity. When an IC50 had to be determined, eight different concentrations were included. All values are the mean of assay readout duplicates.

α1A = molecular target: T2, α1A (Homo sapiens, UniProt P35348); assay: In vitro pharmacology panel (Eurofins); type: binding; conditions: read-out: activity (% of DMSO control)
T2 construct: purchased Eurofins (Cerep/DiscoverX SafetyScreen44 in vitro pharmacology panel)
Text: as §2

M1 = molecular target: T3, M1 (Homo sapiens, UniProt P11229); assay: In vitro pharmacology panel (Eurofins); type: binding; conditions: read-out: activity (% of DMSO control)
T3 construct: purchased Eurofins (Cerep/DiscoverX SafetyScreen44 in vitro pharmacology panel)
Text: as §2

5-HT2A = molecular target: T4, 5-HT2A (Homo sapiens, UniProt P28223); assay: In vitro pharmacology panel (Eurofins); type: binding; conditions: read-out: activity (% of DMSO control)
T4 construct: purchased Eurofins (Cerep/DiscoverX SafetyScreen44 in vitro pharmacology panel)
Text: as §2

[4] = molecular target: T5, norepinephrine transporter (Homo sapiens, UniProt P23975); assay: In vitro pharmacology panel (Eurofins); type: binding; conditions: read-out: activity (% of DMSO control)
T5 construct: purchased Eurofins (Cerep/DiscoverX SafetyScreen44 in vitro pharmacology panel)
Text: as §2

V1 a = molecular target: T6, V1 a (Homo sapiens, UniProt P37288); assay: In vitro pharmacology panel (Eurofins); type: binding; conditions: read-out: activity (% of DMSO control)
T6 construct: purchased Eurofins (Cerep/DiscoverX SafetyScreen44 in vitro pharmacology panel)
Text: as §2

5-HT1A = molecular target: T7, 5-HT1A (Homo sapiens, UniProt P08908); assay: In vitro pharmacology panel (Eurofins); type: binding; conditions: read-out: activity (% of DMSO control)
T7 construct: purchased Eurofins (Cerep/DiscoverX SafetyScreen44 in vitro pharmacology panel)
Text: as §2

β1 = molecular target: T8, β1 (Homo sapiens, UniProt P08588); assay: In vitro pharmacology panel (Eurofins); type: binding; conditions: read-out: activity (% of DMSO control)
T8 construct: purchased Eurofins (Cerep/DiscoverX SafetyScreen44 in vitro pharmacology panel)
Text: as §2

N neuronal α4β2 = molecular target: T9, N neuronal α4β2 (Homo sapiens, UniProt P17787+P43681); assay: In vitro pharmacology panel (Eurofins); type: binding; conditions: read-out: activity (% of DMSO control)
T9 construct: purchased Eurofins (Cerep/DiscoverX SafetyScreen44 in vitro pharmacology panel)
Text: as §2

δ (DOP) = molecular target: T10, δ (DOP) (Homo sapiens, UniProt P41143); assay: In vitro pharmacology panel (Eurofins); type: binding; conditions: read-out: activity (% of DMSO control)
T10 construct: purchased Eurofins (Cerep/DiscoverX SafetyScreen44 in vitro pharmacology panel)
Text: as §2

α2A = molecular target: T11, α2A (Homo sapiens, UniProt P08913); assay: In vitro pharmacology panel (Eurofins); type: binding; conditions: read-out: activity (% of DMSO control)
T11 construct: purchased Eurofins (Cerep/DiscoverX SafetyScreen44 in vitro pharmacology panel)
Text: as §2

5-HT2B = molecular target: T12, 5-HT2B (Homo sapiens, UniProt P41595); assay: In vitro pharmacology panel (Eurofins); type: binding; conditions: read-out: activity (% of DMSO control)
T12 construct: purchased Eurofins (Cerep/DiscoverX SafetyScreen44 in vitro pharmacology panel)
Text: as §2

CCK1 (CCKA) = molecular target: T13, CCK1 (CCKA) (Homo sapiens, UniProt P32238); assay: In vitro pharmacology panel (Eurofins); type: binding; conditions: read-out: activity (% of DMSO control)
T13 construct: purchased Eurofins (Cerep/DiscoverX SafetyScreen44 in vitro pharmacology panel)
Text: as §2

M2 = molecular target: T14, M2 (Homo sapiens, UniProt P08172); assay: In vitro pharmacology panel (Eurofins); type: binding; conditions: read-out: activity (% of DMSO control)
T14 construct: purchased Eurofins (Cerep/DiscoverX SafetyScreen44 in vitro pharmacology panel)
Text: as §2

M3 = molecular target: T15, M3 (Homo sapiens, UniProt P20309); assay: In vitro pharmacology panel (Eurofins); type: binding; conditions: read-out: activity (% of DMSO control)
T15 construct: purchased Eurofins (Cerep/DiscoverX SafetyScreen44 in vitro pharmacology panel)
Text: as §2

ETA = molecular target: T16, ETA (Homo sapiens, UniProt P25101); assay: In vitro pharmacology panel (Eurofins); type: binding; conditions: read-out: activity (% of DMSO control)
T16 construct: purchased Eurofins (Cerep/DiscoverX SafetyScreen44 in vitro pharmacology panel)
Text: as §2

μ (MOP) = molecular target: T17, μ (MOP) (Homo sapiens, UniProt P35372); assay: In vitro pharmacology panel (Eurofins); type: binding; conditions: read-out: activity (% of DMSO control)
T17 construct: purchased Eurofins (Cerep/DiscoverX SafetyScreen44 in vitro pharmacology panel)
Text: as §2

β2 = molecular target: T18, β2 (Homo sapiens, UniProt P07550); assay: In vitro pharmacology panel (Eurofins); type: binding; conditions: read-out: activity (% of DMSO control)
T18 construct: purchased Eurofins (Cerep/DiscoverX SafetyScreen44 in vitro pharmacology panel)
Text: as §2

dopamine transporter = molecular target: T19, dopamine transporter (Homo sapiens, UniProt Q01959); assay: In vitro pharmacology panel (Eurofins); type: binding; conditions: read-out: activity (% of DMSO control)
T19 construct: purchased Eurofins (Cerep/DiscoverX SafetyScreen44 in vitro pharmacology panel)
Text: as §2

D2S = molecular target: T20, D2S (Homo sapiens, UniProt P14416); assay: In vitro pharmacology panel (Eurofins); type: binding; conditions: read-out: activity (% of DMSO control)
T20 construct: purchased Eurofins (Cerep/DiscoverX SafetyScreen44 in vitro pharmacology panel)
Text: as §2

H2 = molecular target: T21, H2 (Homo sapiens, UniProt P25021); assay: In vitro pharmacology panel (Eurofins); type: binding; conditions: read-out: activity (% of DMSO control)
T21 construct: purchased Eurofins (Cerep/DiscoverX SafetyScreen44 in vitro pharmacology panel)
Text: as §2

HepG2 cells = assay: MitoXpress oxygen consumption assay; type: cell-based
Method: Briefly, HepG2 cells were seeded in 96-well plates in 100 μL of complete media and incubated overnight in an incubator set to maintain approximately (37°C and 5% CO2). […] Oligomycin (5 μM), FCCP (1 μM), or antimycin A or antimycin A/Rotenone (1 μM) were added to additional wells as positive controls. Prewarmed (37°C) 100% mineral oil (100 μL) was immediately added to all wells. The assay plates were transferred to a Perkin Elmer Wallac VICTOR3 System reader for time-resolved fluorescence measurements. Fluorescence (excitation 340 nm/emission 642 nm) was measured every two minutes for approximately 1-2 hrs (or until signal plateau/saturation is reached).
The dual-read time-resolved (T1 = 30 μs and T2 = 70 μs) fluorescence intensity readings (R1 and R2) from the Perkin Elmer Wallac VICTOR3 system (Perkin Elmer) were converted to lifetime fluorescence values as per guidelines detailed in the Agilent MitoXpress Xtra Oxygen Consumption Assay Manual. Calculation of the slope translates to oxygen consumption rate (OCR). Oxygen consumption rate was multiplied by 60 to determine the slope/hour for each assay well.

[5] = Exploratory 14-day rat toxicology study
Text: Parameters monitored included morbidity/mortality, clinical signs, body weight, food consumption, hematology and serum clinical chemistry. Main study animals were killed on the day after the last dose and necropsied. Selected organs were weighed. Organ/tissue samples were fixed and preserved at necropsy. Following the macroscopic examination, selected organs/tissues were examined histopathologically and compared to the control group. Satellite animals were sampled for toxicokinetics on days 1 and 14, at various time-points after treatment.

[6] = Reaction phenotyping with chemical CYP inhibitors; type: in vitro ADME; conditions: human liver microsomes
Method: Other aspects of the incubation and analysis were as described above.

T11 sequence (P08913 whole entry): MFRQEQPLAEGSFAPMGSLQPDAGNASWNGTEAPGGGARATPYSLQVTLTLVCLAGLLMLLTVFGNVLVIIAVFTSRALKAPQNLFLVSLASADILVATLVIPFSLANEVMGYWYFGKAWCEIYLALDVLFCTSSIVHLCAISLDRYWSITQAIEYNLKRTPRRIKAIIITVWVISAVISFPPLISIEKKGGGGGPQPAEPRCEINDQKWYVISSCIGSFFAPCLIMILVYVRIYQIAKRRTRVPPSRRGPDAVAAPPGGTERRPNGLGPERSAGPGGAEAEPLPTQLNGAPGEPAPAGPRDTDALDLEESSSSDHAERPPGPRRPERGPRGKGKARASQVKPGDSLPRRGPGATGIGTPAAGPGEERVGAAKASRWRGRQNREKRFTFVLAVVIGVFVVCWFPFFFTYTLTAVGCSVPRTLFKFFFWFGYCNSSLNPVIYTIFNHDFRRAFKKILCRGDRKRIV
T19 sequence (Q01959 whole entry): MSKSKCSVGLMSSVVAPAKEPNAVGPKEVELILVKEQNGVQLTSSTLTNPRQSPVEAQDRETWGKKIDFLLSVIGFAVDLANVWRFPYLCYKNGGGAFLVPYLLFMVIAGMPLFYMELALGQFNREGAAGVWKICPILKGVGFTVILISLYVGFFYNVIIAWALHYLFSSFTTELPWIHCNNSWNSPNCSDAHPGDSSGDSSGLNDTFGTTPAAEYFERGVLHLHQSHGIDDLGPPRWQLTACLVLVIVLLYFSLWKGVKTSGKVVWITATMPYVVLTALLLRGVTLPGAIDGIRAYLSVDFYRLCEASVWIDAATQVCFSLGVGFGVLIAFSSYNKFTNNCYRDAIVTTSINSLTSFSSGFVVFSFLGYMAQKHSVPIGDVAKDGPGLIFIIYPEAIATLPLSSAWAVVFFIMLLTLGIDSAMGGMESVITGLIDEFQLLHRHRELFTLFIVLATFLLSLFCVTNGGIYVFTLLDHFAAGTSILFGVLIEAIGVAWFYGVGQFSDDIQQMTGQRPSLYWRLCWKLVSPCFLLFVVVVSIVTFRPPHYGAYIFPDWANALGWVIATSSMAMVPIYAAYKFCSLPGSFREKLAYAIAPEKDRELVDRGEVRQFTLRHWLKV
T20 sequence (P14416 1-414 isoform P14416-2): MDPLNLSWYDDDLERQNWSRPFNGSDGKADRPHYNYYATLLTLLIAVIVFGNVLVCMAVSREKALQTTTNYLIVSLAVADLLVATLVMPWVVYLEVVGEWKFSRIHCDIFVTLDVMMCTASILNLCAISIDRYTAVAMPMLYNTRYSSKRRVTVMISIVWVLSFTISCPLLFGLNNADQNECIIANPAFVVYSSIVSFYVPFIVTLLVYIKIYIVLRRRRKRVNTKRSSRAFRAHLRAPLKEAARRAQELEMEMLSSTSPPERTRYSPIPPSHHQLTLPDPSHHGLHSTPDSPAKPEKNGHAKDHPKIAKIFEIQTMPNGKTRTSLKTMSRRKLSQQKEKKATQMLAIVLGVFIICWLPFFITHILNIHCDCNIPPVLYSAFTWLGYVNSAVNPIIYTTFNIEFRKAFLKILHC
T14 sequence (P08172 whole entry): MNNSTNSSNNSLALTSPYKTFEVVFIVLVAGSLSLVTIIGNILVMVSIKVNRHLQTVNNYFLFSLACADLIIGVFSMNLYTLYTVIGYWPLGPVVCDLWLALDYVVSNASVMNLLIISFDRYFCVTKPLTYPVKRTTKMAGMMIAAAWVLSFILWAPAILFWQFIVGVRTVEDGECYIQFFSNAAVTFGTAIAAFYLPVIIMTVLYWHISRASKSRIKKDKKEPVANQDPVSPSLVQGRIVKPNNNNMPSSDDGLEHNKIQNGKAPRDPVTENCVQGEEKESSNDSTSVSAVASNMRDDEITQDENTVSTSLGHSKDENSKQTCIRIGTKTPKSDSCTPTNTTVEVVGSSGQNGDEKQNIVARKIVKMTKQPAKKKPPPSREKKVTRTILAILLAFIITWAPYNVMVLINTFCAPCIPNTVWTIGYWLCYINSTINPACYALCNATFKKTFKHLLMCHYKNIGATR
T21 sequence (P25021 whole entry): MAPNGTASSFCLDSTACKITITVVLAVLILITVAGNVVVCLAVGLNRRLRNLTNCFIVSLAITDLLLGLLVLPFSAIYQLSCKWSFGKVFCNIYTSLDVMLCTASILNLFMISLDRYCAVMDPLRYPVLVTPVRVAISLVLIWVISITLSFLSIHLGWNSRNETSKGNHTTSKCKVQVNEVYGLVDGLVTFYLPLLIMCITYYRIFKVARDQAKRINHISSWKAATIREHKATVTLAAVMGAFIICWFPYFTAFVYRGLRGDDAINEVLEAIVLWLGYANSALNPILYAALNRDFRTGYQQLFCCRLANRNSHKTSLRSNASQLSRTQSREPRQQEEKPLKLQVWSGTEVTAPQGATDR
T8 sequence (P08588 whole entry): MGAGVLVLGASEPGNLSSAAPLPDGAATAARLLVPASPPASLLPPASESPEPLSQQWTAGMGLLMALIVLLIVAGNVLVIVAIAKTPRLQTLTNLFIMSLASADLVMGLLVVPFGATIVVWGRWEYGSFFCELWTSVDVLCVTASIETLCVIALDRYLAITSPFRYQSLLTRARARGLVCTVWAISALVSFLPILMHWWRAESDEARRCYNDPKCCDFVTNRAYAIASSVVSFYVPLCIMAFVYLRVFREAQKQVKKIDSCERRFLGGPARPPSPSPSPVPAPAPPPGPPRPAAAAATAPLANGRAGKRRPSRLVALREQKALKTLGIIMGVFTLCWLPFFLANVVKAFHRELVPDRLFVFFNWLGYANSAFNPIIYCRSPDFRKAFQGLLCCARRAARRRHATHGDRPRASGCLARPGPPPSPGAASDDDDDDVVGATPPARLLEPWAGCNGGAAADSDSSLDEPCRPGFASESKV
T6 sequence (P37288 whole entry): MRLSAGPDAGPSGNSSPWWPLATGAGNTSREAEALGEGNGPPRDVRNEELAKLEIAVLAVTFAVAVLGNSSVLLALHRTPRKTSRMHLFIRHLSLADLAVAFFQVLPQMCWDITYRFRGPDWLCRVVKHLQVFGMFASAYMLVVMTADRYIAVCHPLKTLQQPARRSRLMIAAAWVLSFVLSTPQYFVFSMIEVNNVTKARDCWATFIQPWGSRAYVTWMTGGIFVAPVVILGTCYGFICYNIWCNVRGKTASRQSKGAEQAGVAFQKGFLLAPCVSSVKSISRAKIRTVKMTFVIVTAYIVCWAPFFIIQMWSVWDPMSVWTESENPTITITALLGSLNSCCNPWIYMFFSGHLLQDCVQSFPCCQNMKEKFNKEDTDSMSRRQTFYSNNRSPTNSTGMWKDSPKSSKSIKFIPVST
T10 sequence (P41143 whole entry): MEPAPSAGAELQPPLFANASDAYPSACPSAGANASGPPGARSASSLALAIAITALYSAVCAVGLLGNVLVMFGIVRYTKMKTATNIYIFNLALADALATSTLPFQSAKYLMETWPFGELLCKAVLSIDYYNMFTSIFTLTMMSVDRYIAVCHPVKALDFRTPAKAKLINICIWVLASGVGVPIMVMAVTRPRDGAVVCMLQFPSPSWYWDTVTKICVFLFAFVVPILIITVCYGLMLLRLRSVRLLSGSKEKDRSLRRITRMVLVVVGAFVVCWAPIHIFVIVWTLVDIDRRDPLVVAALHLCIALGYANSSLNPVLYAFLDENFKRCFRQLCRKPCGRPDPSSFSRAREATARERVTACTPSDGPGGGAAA
T1 sequence (P04150 whole entry): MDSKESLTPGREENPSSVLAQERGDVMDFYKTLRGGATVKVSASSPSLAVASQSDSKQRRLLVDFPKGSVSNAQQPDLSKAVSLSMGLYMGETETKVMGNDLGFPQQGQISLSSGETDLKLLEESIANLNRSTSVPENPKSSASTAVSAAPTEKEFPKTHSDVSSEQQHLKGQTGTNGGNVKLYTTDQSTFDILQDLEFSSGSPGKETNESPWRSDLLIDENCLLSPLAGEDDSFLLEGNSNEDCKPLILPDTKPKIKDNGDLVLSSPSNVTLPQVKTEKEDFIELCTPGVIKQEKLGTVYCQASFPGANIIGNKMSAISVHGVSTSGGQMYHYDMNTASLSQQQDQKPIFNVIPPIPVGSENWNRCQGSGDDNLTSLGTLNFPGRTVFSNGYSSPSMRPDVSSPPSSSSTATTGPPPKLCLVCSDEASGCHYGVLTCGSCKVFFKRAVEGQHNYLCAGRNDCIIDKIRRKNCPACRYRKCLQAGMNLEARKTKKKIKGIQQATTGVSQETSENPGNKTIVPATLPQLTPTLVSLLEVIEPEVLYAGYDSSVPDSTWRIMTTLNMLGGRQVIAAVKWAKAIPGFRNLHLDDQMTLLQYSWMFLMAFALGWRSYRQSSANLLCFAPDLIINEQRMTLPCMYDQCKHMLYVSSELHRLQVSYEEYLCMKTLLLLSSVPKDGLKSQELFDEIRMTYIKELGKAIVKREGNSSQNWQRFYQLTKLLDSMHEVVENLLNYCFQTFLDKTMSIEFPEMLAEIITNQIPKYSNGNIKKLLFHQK
T18 sequence (P07550 whole entry): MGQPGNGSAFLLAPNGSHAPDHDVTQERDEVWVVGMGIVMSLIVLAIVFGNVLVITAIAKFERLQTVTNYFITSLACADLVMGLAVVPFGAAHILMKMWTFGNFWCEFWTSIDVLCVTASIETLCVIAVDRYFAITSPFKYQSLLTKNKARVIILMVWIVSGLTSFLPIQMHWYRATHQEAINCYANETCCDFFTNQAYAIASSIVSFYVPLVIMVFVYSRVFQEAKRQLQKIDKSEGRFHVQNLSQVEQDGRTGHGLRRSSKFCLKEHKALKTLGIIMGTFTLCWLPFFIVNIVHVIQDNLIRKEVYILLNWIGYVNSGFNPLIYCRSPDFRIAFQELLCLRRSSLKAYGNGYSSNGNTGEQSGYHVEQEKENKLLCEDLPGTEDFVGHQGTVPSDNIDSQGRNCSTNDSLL

Cc1[nH]c2nc(N)nc(C)c2c1-c1ccc(C#N)c2c1OCO2 [DNDI-6174]
A-B Mass balance (Caco-2 cell monolayers): 98% | B-A Mass balance (Caco-2 cell monolayers): 96% | Papp A→B (Caco-2 permeability): 71 ×10⁻⁶ cm/s | Papp B→A (Caco-2 permeability): 72 ×10⁻⁶ cm/s | genotoxicity, in words [1]: not genotoxic | pKa (measured) [2]: 5.58 | Log D7.4 (measured) ([2]; octanol-pH 7.4 buffer): 2.57 | logD ([2]; octanol/pH 7.4 buffer, pH 7.4, octanol-pH 7.4 buffer, read-out: Log D7.4 (measured)): 2.6 | pKa ([2]; read-out: pKa (measured)): 5.6 | EC50 [3]: < 5 nM | remaining activity at 10 µM (GR): 93% | remaining activity at 10 µM (α1A): 25.1% | remaining activity at 10 µM (M1): 91.5% | remaining activity at 10 µM (5-HT2A): 93.9% | remaining activity at 10 µM [4]: 81.9% | remaining activity at 10 µM (V1 a): 101% | remaining activity at 10 µM (5-HT1A): 107% | remaining activity at 10 µM (β1): 113% | remaining activity at 10 µM (N neuronal α4β2): 100% | remaining activity at 10 µM (δ (DOP)): 102% | remaining activity at 10 µM (α2A): 60.3% | remaining activity at 10 µM (5-HT2B): 81.4% | remaining activity at 10 µM (CCK1 (CCKA)): 126% | remaining activity at 10 µM (M2): 92.9% | remaining activity at 10 µM (M3): 98.5% | remaining activity at 10 µM (ETA): 103% | remaining activity at 10 µM (μ (MOP)): 94.3% | remaining activity at 10 µM (β2): 102% | remaining activity at 10 µM (dopamine transporter): 60.6% | remaining activity at 10 µM (D2S): 77.6% | remaining activity at 10 µM (H2): 120% | concentrations at which oxygen consumption was reduced (HepG2 cells): ≥ 66 µM | margin of MitoExpress no-effect concentration over free concentration at predicted human therapeutic plasma Cmax (HepG2 cells): approximately 57 fold | maximum reduction of oxygen consumption (HepG2 cells; 200 μM (highest tested)): 28% | tolerability, in words ([5]; 200 mg/kg): early sacrifice of one female on day 5 | body weight decrease ([5]; 200 mg/kg, males): > 10% | tolerability, in words ([5]; 30 and 80 mg/kg oral): no mortality or morbidity | CLint in absence or presence of CYP isoform inhibitors, in words [6]: no significant difference in the CLint values in the absence or presence of inhibitors
